Measurements reported in patent EP4768498A1, “PEPTIDE, DROPLET FORMING KIT, DROPLET FORMING METHOD, HYDROPHOBIC SUBSTANCE CONCENTRATION METHOD, AND PROTEIN FOLDING METHOD” (National University Corporation Tokyo University Of …, priority 2023, dated 2026).
Positions of bridges follow the written chain, without caps; N, C: chain ends. No end group written: not given here.

Legend:
[1] = Transmittance measurement (transition temperature); format: physicochemical; settings: 2 wt% solution, 50 mM Tris-HCl (pH: 7.5) containing 0.3 M sodium chloride, absorbance at 600 nm
Experimental: FF-ELP4 or LL-ELP4 was dissolved in 50 mM Tris-HCl (pH: 7.5) containing 0.3 M sodium chloride and incubated at 60°C. LL-ELP4 was dissolved in 50 mM Tris-HCl (pH: 7.5) to a final concentration of 2 wt%. Since FF-ELP4 could not be dissolved to a final concentration of 2 wt%, it was dissolved in 50 mM Tris-HCl (pH: 7.5) to a final concentration of 1 wt%. Transmittance measurement was carried out using an ultraviolet-visible spectrophotometer V-650 manufactured by JASCO Corporation (Tokyo, Japan). For the samples prepared as described above, absorbance at a wavelength of 600 nm was monitored while changing the temperature. A quartz cell (optical path length: 10 mm) of Sansyo Co., Ltd. was used as a measurement cell. […] LL-ELP4-SS was dissolved in 50 mM Tris-HCl (pH: 7.5) containing 0.3 M sodium chloride and incubated at 60°C. LL-ELP4-SS was dissolved in 50 mM Tris-HCl (pH: 7.5) to a final concentration of 2 wt%. Transmittance measurement was carried out using an ultraviolet-visible spectrophotometer V-650 manufactured by JASCO Corporation (Tokyo, Japan). For the samples prepared as described above, absorbance at a wavelength of 600 nm was monitored while changing the temperature. A quartz cell (optical path length: 10 mm) of Sansyo Co., Ltd. was used as a measurement cell.

[2] = Phase-contrast microscope observation of droplets; format: physicochemical; settings: 60°C
Experimental: Phase-contrast microscope observation was carried out using IX-73 manufactured by Olympus Corporation (Tokyo, Japan). A sample was dropped onto a slide glass, and a cover glass was placed over the sample through a silicone spacer having a thickness of 0.2 mm. The sample was observed while incubating at 60°C. The samples were prepared by dissolving FF-ELP4 or LL-ELP4 in 50 mM Tris-HCl (pH: 7.5) containing 0.3 M sodium chloride. FF-ELP4 was dissolved to a final concentration of 1 wt%. LL-ELP4 was dissolved to a final concentration of 5 wt%.
(§1) Phase-contrast microscope observation was carried out using IX-73 manufactured by Olympus Corporation (Tokyo, Japan). A sample in which a cover glass was placed on the peptide solution through a silicone spacer having a thickness of 0.2 mm on a slide glass was observed while incubating at 60°C. The peptide solution was prepared by dissolving LL-ELP4 to 2 wt% and LL-ELP4-SS to 0.7 mM (0.16 wt%) in 50 mM Tris-HCl (pH: 7.5) containing 0.3 M sodium chloride.
as §1, with “LL-ELP4-SS” for “LL-ELP4”, “wt%” for “wt% and LL-ELP4-SS to 0.7 mM (0.16 wt%)”
(§2) A folding test of denatured BPTI was performed in the same manner as in <Folding test of denatured BPTI: LL-ELP4/LL-ELP4-SS mixed solution> described above, except that LL-ELP4-SS was used alone instead of the combination of LL-ELP4 and LL-ELP4-SS. The final concentration of LL-ELP4-SS in the test solution was 0.16 wt%.

[3] = system: Reduced and denatured BPTI; assay: Evaluation of incorporation of denatured BPTI into droplets; design: species or system Bovine; settings: for Reduced and denatured BPTI Inside droplets / Reduced and denatured BPTI Outside droplets: BPTI 30 µM, 60°C overnight
Experimental: (§3) FF-ELP4 or LL-ELP4 was dissolved in 50 mM Tris-HCl (pH: 7.5) containing 0.3 M sodium chloride, and pre-incubated at 60°C for 1 minute. […] The mixture was incubated at 60°C overnight, centrifuged (8,000 rpm, 25°C, 30 seconds) using a high-spin mini centrifuge HSC-12000 manufactured by Taiyo Corporation (Osaka, Japan), and quickly separated into a supernatant and a precipitate (droplets). 400 µL of a 1 M HCl aqueous solution was added to each of the supernatant and the precipitate to stop the reaction. For each of the supernatant and the precipitate, the reduced and denatured BPTI or the native BPTI was quantified by HPLC analysis. The analysis was performed by reverse-phase high-performance liquid chromatography (RP-HPLC) using a Primaide HPLC system (1410 UV detector, 1310 column oven, 1110 pump) manufactured by Hitachi High-Tech Corporation (Tokyo, Japan) and a TSKgel Protein C4-300 column (4.6 mmφ × 150 mm) manufactured by Tosoh Corporation (Tokyo, Japan) at a flow rate of 1.0 mL·min^-1 (Solvent A: water containing 0.05% TFA, Solvent B: acetonitrile containing 0.05% TFA; ratio of Solvent A: linear gradient of 95% at 0 min, 80% at 15 min, and 30% at 115 min).

[4] = system: Native BPTI; assay: Evaluation of incorporation of native BPTI into droplets; design: species or system Bovine; settings: BPTI 30 µM, 60°C overnight
Experimental: as §3

[5] = system: Reduced and denatured BPTI; assay: Folding test of denatured BPTI; format: biochemical, Bovine; settings: LL-ELP4-SS alone 0.16 wt%, no droplets, no centrifugation, BPTI 30 µM, 60°C
Experimental: LL-ELP4 and LL-ELP4-SS were dissolved in a buffer (50 mM Tris-HCl, 0.3 M NaCl, pH: 7.5) and pre-incubated at 60°C for 3 minutes. […] The mixture was incubated at 60°C, and when 1 minute, 10 minutes, and 60 minutes had elapsed, it was centrifuged (10,000 rpm, 25°C, 10 seconds) using a high-spin mini centrifuge HSC-12000 manufactured by Taiyo Corporation (Osaka, Japan) and quickly separated into a supernatant and a precipitate. To both the supernatant and the precipitate, 1 M aqueous HCl was added to quench the reaction. The samples were analyzed by reverse-phase high-performance liquid chromatography (RP-HPLC) using a Primaide HPLC system (1410 UV detector, 1310 column oven, and 1110 pump) manufactured by Hitachi, Ltd. (Tokyo, Japan) and a TSKgel Protein C4-300 column (4.6 mm i.d. × 150 mm) manufactured by Tosoh Corporation (Tokyo, Japan) at a flow rate of 1.0 mL min-1 (Solvent A: water containing 0.05% TFA; Solvent B: acetonitrile containing 0.05% TFA; linear gradient of Solvent A: 95% at 0 min, 80% at 15 min, and 30% at 115 min).
as §2

Row | Substance | transition temperature [1] [°C] | droplets observed ([2]; 5 wt% solution) | Reduced and denatured BPTI Inside droplets ([3]; peptide 2 wt%) [%] | Reduced and denatured BPTI Outside droplets ([3]; peptide 2 wt%) [%] | Reduced and denatured BPTI Inside droplets ([3]; peptide 5 wt%) [%] | Reduced and denatured BPTI Outside droplets ([3]; peptide 5 wt%) [%] | aggregation of reduced and denatured BPTI recovered from the droplets ([3]; peptide 5 wt%, redispersed in water) | Native BPTI Inside droplets ([4]; peptide 2 wt%) [%] | Native BPTI Outside droplets ([4]; peptide 2 wt%) [%] | Native BPTI Inside droplets ([4]; peptide 5 wt%) [%] | Native BPTI Outside droplets ([4]; peptide 5 wt%) [%] | added reduced and denatured BPTI detected as native structural BPTI [5] [%] | droplet formation ([2]; 0.16 wt% solution in the folding test) | droplets observed ([2]; 2 wt% solution)
1 | Ac-LLVPGVGVPGVGVPGVGVPGVG-NH2 [LL-ELP4, LL-(VPGVG)4] | 53 | droplets of appropriate size were observed | 91 | 9 | > 99 | < 1 | aggregation was suppressed | 3 | 97 | 7 | 93 |  |  | 
2 | LL-(VPGVG)2-CGHC-(VPGVG)2 (LLVPGVGVPGVGCGHCVPGVGVPGVG; disulfide 13-16 (inferred)) [LL-ELP4-SS] | 48 |  |  |  |  |  |  |  |  |  |  | ≥ 99 | droplets were not formed | Droplets of appropriate size were observed
